In patent publication US20200181117A1, “SUBSTITUTED 3-HETEROARYLOXY-1H-PYRAZOLES AND SALTS THEREOF AND THEIR USE AS HERBICIDAL ACTIVE SUBSTANCES” (BAYER CROPSCIENCE AKTIENGESELLSCHAFT, priority 2017, published 2020):

Tests used:
Format in all cases: in vivo
Amaranthus retroflexus [1] = assay: Pre-emergence herbicidal action; conditions: 1280 g/ha, scored visually after about 3 weeks vs untreated controls
Text: (§1) Pre-Emergence Herbicidal Action and Crop Plant Compatibility Seeds of monocotyledonous and dicotyledonous weed plants and crop plants were placed in plastic or wood fiber pots and covered with soil. The compounds of the invention, formulated in the form of wettable powders (WP) or as emulsion concentrates (EC), were then applied onto the surface of the covering soil as aqueous suspension or emulsion with addition of 0.5% additive at a water application rate of 600 l/ha (converted). After the treatment, the pots were placed in a greenhouse and kept under good growth conditions for the test plants. After about 3 weeks, the effect of the preparations was scored visually in comparison with untreated controls as percentages. For example, 100% activity=the plants have died, 0% activity=like control plants. Tables C1 to C14 below show the effects of selected compounds of the general formula (I) according to Table I on various harmful plants and an application rate corresponding to 1280 g/ha, which were obtained by the experimental procedure mentioned above.

Veronica persica [2] = assay: Pre-emergence herbicidal action; conditions: 1280 g/ha, scored visually after about 3 weeks vs untreated controls
Text: as §1

Matricaria inodora = assay: Pre-emergence herbicidal action; conditions: 1280 g/ha, scored visually after about 3 weeks vs untreated controls
Text: as §1

Stellaria media [3] = assay: Post-emergence herbicidal action; conditions: 1280 g/ha, rated visually after about 3 weeks vs untreated controls
Description: (§2) A. Post-Emergence Herbicidal Action and Crop Plant Compatibility Seeds of monocotyledonous and dicotyledonous weeds and crop plants were placed in sandy loam in plastic or wood-fiber pots, covered with soil and cultivated in a greenhouse under controlled growth conditions. 2 to 3 weeks after sowing, the test plants were treated at the one-leaf stage. The compounds of the invention, formulated in the form of wettable powders (WP) or as emulsion concentrates (EC), were then sprayed onto the green parts of the plants as aqueous suspension or emulsion with addition of 0.5% additive at a water application rate of 600 l/ha (converted). After the test plants had been kept in the greenhouse under optimum growth conditions for about 3 weeks, the activity of the preparations was rated visually in comparison to untreated controls. For example, 100% activity=the plants have died, 0% activity=like control plants. Tables B1 to B15 below show the effects of selected compounds of the general formula (I) according to Table I on various harmful plants and an application rate corresponding to 1280 g/ha, which were obtained by the experimental procedure mentioned above.

Amaranthus retroflexus [4] = assay: Post-emergence herbicidal action; conditions: 1280 g/ha, rated visually after about 3 weeks vs untreated controls
Description: as §2

Veronica persica [5] = assay: Post-emergence herbicidal action; conditions: 1280 g/ha, rated visually after about 3 weeks vs untreated controls
Description: as §2

Polygonum convolvulus [6] = assay: Post-emergence herbicidal action; conditions: 1280 g/ha, rated visually after about 3 weeks vs untreated controls
Description: as §2

Stellaria media [7] = assay: Pre-emergence herbicidal action; conditions: 1280 g/ha, scored visually after about 3 weeks vs untreated controls
Text: as §1

Viola tricolor [8] = assay: Pre-emergence herbicidal action; conditions: 1280 g/ha, scored visually after about 3 weeks vs untreated controls
Text: as §1

Alopecurus myosuroides [9] = assay: Pre-emergence herbicidal action; conditions: 1280 g/ha, scored visually after about 3 weeks vs untreated controls
Text: as §1

Abutilon theophrasti [10] = assay: Pre-emergence herbicidal action; conditions: 1280 g/ha, scored visually after about 3 weeks vs untreated controls
Text: as §1

Echinochloa crus-galli [11] = assay: Pre-emergence herbicidal action; conditions: 1280 g/ha, scored visually after about 3 weeks vs untreated controls
Text: as §1

Polygonum convolvulus [12] = assay: Pre-emergence herbicidal action; conditions: 1280 g/ha, scored visually after about 3 weeks vs untreated controls
Text: as §1

Setaria viridis [13] = assay: Pre-emergence herbicidal action; conditions: 1280 g/ha, scored visually after about 3 weeks vs untreated controls
Text: as §1

Viola tricolor [14] = assay: Post-emergence herbicidal action; conditions: 1280 g/ha, rated visually after about 3 weeks vs untreated controls
Description: as §2

Avena fatua = assay: Pre-emergence herbicidal action; conditions: 1280 g/ha, scored visually after about 3 weeks vs untreated controls
Text: as §1

Alopecurus myosuroides [15] = assay: Post-emergence herbicidal action; conditions: 1280 g/ha, rated visually after about 3 weeks vs untreated controls
Description: as §2

Abutilon theophrasti [16] = assay: Post-emergence herbicidal action; conditions: 1280 g/ha, rated visually after about 3 weeks vs untreated controls
Description: as §2

Setaria viridis [17] = assay: Post-emergence herbicidal action; conditions: 1280 g/ha, rated visually after about 3 weeks vs untreated controls
Description: as §2

Pharbitis purpurea = assay: Post-emergence herbicidal action; conditions: 1280 g/ha, rated visually after about 3 weeks vs untreated controls
Description: as §2

Hordeum murinum = assay: Pre-emergence herbicidal action; conditions: 1280 g/ha, scored visually after about 3 weeks vs untreated controls
Text: as §1

Echinochloa crus-galli [18] = assay: Post-emergence herbicidal action; conditions: 1280 g/ha, rated visually after about 3 weeks vs untreated controls
Description: as §2

Lolium rigidum = assay: Pre-emergence herbicidal action; conditions: 1280 g/ha, scored visually after about 3 weeks vs untreated controls
Text: as §1

SMILES	herbicidal activity on Amaranthus retroflexus (Amaranthus retroflexus [1]) [%]	herbicidal activity on Veronica persica (Veronica persica [2]) [%]	herbicidal activity on Matricaria inodora (Matricaria inodora) [%]	herbicidal activity on Stellaria media (Stellaria media [3]) [%]	herbicidal activity on Amaranthus retroflexus (Amaranthus retroflexus [4]) [%]	herbicidal activity on Veronica persica (Veronica persica [5]) [%]	herbicidal activity on Polygonum convolvulus (Polygonum convolvulus [6]) [%]	herbicidal activity on Stellaria media (Stellaria media [7]) [%]	herbicidal activity on Viola tricolor (Viola tricolor [8]) [%]	herbicidal activity on Alopecurus myosuroides (Alopecurus myosuroides [9]) [%]	herbicidal activity on Abutilon theophrasti (Abutilon theophrasti [10]) [%]	herbicidal activity on Echinochloa crus-galli (Echinochloa crus-galli [11]) [%]	herbicidal activity on Polygonum convolvulus (Polygonum convolvulus [12]) [%]	herbicidal activity on Setaria viridis (Setaria viridis [13]) [%]	herbicidal activity on Viola tricolor (Viola tricolor [14]) [%]	herbicidal activity on Avena fatua (Avena fatua) [%]	herbicidal activity on Alopecurus myosuroides (Alopecurus myosuroides [15]) [%]	herbicidal activity on Abutilon theophrasti (Abutilon theophrasti [16]) [%]	herbicidal activity on Setaria viridis (Setaria viridis [17]) [%]	herbicidal activity on Pharbitis purpurea (Pharbitis purpurea) [%]	other results
Cn1cc(Sc2ccc(F)cc2)c(Oc2ncccn2)n1 [Example I-032]	80	90	90	100	90	90	90														
CCc1c(Sc2ccc(Cl)cc2)c(Oc2ncccn2)nn1C [Example I-058]	100			100	80	90		90	80												
Cn1cc(Sc2ccccc2)c(Oc2ncccn2)n1 [Example I-067]	100	100	100	90		100	90	90	100	90	90	90	90	100	80						
Cc1c(Sc2ccc(F)cc2)c(Oc2ncccn2)nn1C [Example I-087]	100	100	90	100	100	100	100		100		100	80	90	100	100	80	90	80	90	80	
Cn1cc(Sc2ccccc2)c(Oc2ncc(Cl)cn2)n1 [Example I-120]	80	100		90	80	80	100	100	100	90	100	100	80		100		90		80		
Fc1ccc(Sc2c(Oc3ncc(F)cn3)nn3c2CCOCC3)cc1 [Example I-122]	100	100	100	90		90	100	100	100	100	100	100	100	100	90	80	90	100	100	90	herbicidal activity on Hordeum murinum (Hordeum murinum): 90%; herbicidal activity on Echinochloa crus-galli (Echinochloa crus-galli [18]): 90%
CCc1c(Sc2ccc(F)cc2F)c(Oc2ncccn2)nn1C [Example I-136]	100		100	90	100	100		100	100	100	100	90	100	100	100	90		90			herbicidal activity on Lolium rigidum (Lolium rigidum): 100%
Cc1c(Sc2cccc(C(F)(F)F)c2)c(Oc2ncccn2)nn1C [Example I-142]	90	90			90	80		90	100	80			100	100				80			
CCc1c(Sc2ccccc2)c(Oc2ncc(F)cn2)nn1C [Example I-155]	100		100	90	100	100		100	100	100	100	90		100	100	100	90	80	80	80	herbicidal activity on Lolium rigidum (Lolium rigidum): 80%; herbicidal activity on Hordeum murinum (Hordeum murinum): 100%
Fc1ccc(Sc2c(Oc3ncccn3)nn3c2CCOCC3)c(F)c1 [Example I-163]	90	90	100	80		80	100	90	100	90	100	100	100	100	90		90	90	90	90	herbicidal activity on Hordeum murinum (Hordeum murinum): 90%; herbicidal activity on Echinochloa crus-galli (Echinochloa crus-galli [18]): 90%
